In experiment [1] the test system is nicotinic acetylcholine receptors (nAChRs), [^3H]-epibatidine binding sites in rat cerebral cortex. In words: Homogenate binding assay with [^3H]-epibatidine, rat cerebral cortex homogenates.
For experiment [2] the test system is unchanged.
The test system of experiment [3] is nicotinic acetylcholine receptors (nAChRs), [^3H]-epibatidine binding sites in rat cerebellum.
The test system of experiment [4] is nAChRs ([^3H]-epibatidine binding sites) in rat cortex and cerebellum. The following applies: in vivo.
Experiment [5] concerns the target nicotinic acetylcholine receptors (nAChRs), [^3H]-epibatidine binding sites in rat cerebellum. This is another data set of the same source.

Where “and” joins values, the source holds several entries; their conditions need not be identical. Equal values may be shown once. Where a name gives a salt, the structure may show the parent alone. Read-outs that look alike come from different tables or passages of the source.

`C[N+](C)(C)CCCCCC[N+](C)(C)C` [Hexamethonium, hexamethonium chloride]: in experiment [1], the “Competition in the [^3H]-epibatidine binding assay” value (“Competition” below) is “competitive” and the “pKi (single site; one-site fit)” value is on record as 4.0 ± 0.1. In experiment [2], the “Competition” value was “competitive”; the “pKi (single site; cell spans pKihigh and pKilow columns)” value stood at 3.4 ± 0.1.

For `CO[C@H]1CC=C2CCN3CCC4=C(CC(=O)OC4)[C@]23C1` [Dihydro-β-erythroidine, dihydro-β-erythroidine], the pKihigh is listed as 7.7 ± 0.2 in experiment [1] and 7.1 ± 0.1 in experiment [2]. The values for the pKilow in experiment [1] and in experiment [2] were 6.3 ± 0.1 and 5.7 ± 0.2, respectively.

As to `CN1CCC[C@H]1c1cccnc1` [Nicotine, nicotine], the “pKi (single site; cell spans pKihigh and pKilow columns)” value in experiment [3] is on record as 7.1 ± 0.2. Also, the “Upregulation of nAChRs” value in experiment [4] was “no upregulation”. Also, in experiment [5], the pKihigh is reported as 8.2 ± 0.1 and the pKilow worked out at 6.3 ± 0.1. Further, in experiment [1], the pKi (in general, −log10 of the Ki, conventionally taken in molar units) was determined as 8.1 ± 0.1 and the “pKi (single site; one-site fit)” value came to 8.4 ± 0.1. In addition, in experiment [2], the pKihigh is 7.8 ± 0.2 and 7.9 ± 0.1; the pKilow is 6.3 ± 0.2 and 6.5 ± 0.1.

Take `CNC1(C)C2CCC(C2)C1(C)C` (stereo not drawn) [Mecamylamine, mecamylamine hydrochloride]: the “Competition” value in experiment [1] and in experiment [2] was “failed to compete” in each case. In addition, the “pKi (single site; one-site fit)” value in experiment [1] (cortex homogenates, 200 pM [^3H]-epibatidine, 5 h, 4°C) was “NI (NI, no inhibition)”. In addition, the “pKi (single site; cell spans pKihigh and pKilow columns)” value in experiment [2] (cortex segments, 400 pM [^3H]-epibatidine, 28 h, 4°C) was “NI (NI, no inhibition)”.

In experiment [1], `O=c1cccc2n1C[C@@H]1CNC[C@H]2C1` [Cytisine, cytisine] returned a pKihigh of 9.4 ± 0.0 and a pKilow of 7.2 ± 0.2. In experiment [2], this compound gave a pKihigh of 8.7 ± 0.1 and a pKilow of 6.7 ± 0.1.

These data come from publication PMC3198036 (Frontiers in Pharmacology, 2011).
